What was measured:
[1] = test system: P388 lymphocytic leukemia; type: cell-based, Murine; conditions: murine P-388 leukemia, 48 hours
FADU = type: cell-based, Human; conditions: FADU, 48 hours
[2] = test system: eight bacteria and two fungi tested; test: Disk susceptibility testing, whole microbe panel; type: cell-based; conditions: for Microbe(s) inhibited: at 100 μg/disk, eight bacteria and two fungi
BXPC-3 = type: cell-based, Human; conditions: BXPC-3, 48 hours
SK-N-SH = type: cell-based, Human; conditions: SK-N-SH, 48 hours
NCI-H460 = type: cell-based, Human; conditions: NCI-H460, 48 hours
SW1736 = type: cell-based, Human; conditions: SW1736, 48 hours
Solubility in water = conditions: for Solubility: mg per 1 ml water at 25° C.
DU-145 = type: cell-based, Human; conditions: DU-145, 48 hours
SK-Mel-3 = type: cell-based, Human; conditions: SK-Mel-3, 48 hours
Neisseria gonorrhoeae = type: cell-based; conditions: disk susceptibility; for Minimum inhibitory amount per disk: Neisseria gonorrhoeae
Cryptococcus neoformans = test: Disk susceptibility testing, Cryptococcus neoformans; type: cell-based
Candida albicans = test: Disk susceptibility testing, Candida albicans; type: cell-based
full-panel NCl screen = conditions: full-panel NCI screen, previously reported, cited from earlier work

Compound	ED50 P-388 [1] [µg/mL]	GI50 Pharynx FADU (FADU) [µg/mL]	Microbe(s) inhibited [2]	GI50 Pancreas BXPC-3 (BXPC-3) [µg/mL]	GI50 Neuroblast SK-N-SH (SK-N-SH) [µg/mL]	GI50 Lung-NSC NCI-H460 (NCI-H460) [µg/mL]	GI50 Thyroid SW1736 (SW1736) [µg/mL]	Solubility (Solubility in water) [µg/mL]	GI50 Prostate DU-145 (DU-145) [µg/mL]	GI50 Melanoma SK-Mel-3 (SK-Mel-3) [µg/mL]	Minimum inhibitory amount per disk (Neisseria gonorrhoeae)	Minimum inhibitory concentration (Cryptococcus neoformans)	antimicrobial growth inhibition (in words) ([2]; disk susceptibility, bacteria and fungi tested)	Minimum inhibitory concentration (Candida albicans)	solubility in water (in words) (Solubility in water; water)	growth inhibition of Neisseria gonorrhoeae (in words) (Neisseria gonorrhoeae)	Pearson correlation coefficient, TGI-COMPARE differential cytotoxicity profile versus combretastatin A-4 1a (full-panel NCl screen)	GI50 (full-panel NCl screen; read-out: mean panel GI50 concentration, quadruplicate, three concentration ranges) [nM]
COc1ccc(/C=C\c2cc(OC)c(OC)c(OC)c2)cc1OP(=O)([O-])[O-].[Mg+2] [Compound 5d, Magnesium combretastatin A-4 3-O-phosphate]	0.0018	0.031	* (At 100 μg/disk no inhibition of the eight bacteria and two fungi tested.)	0.43	0.01	0.017	6.8	7000	0.01	–	–	–	–	–	–	–	–	–
Adenosine combretastatin A-4 3′-O-phosphate [Compound 5m]	0.16	0.032	* (At 100 μg/disk no inhibition of the eight bacteria and two fungi tested.)	11.6	0.034	0.038	0.092	–	0.036	0.35	–	–	–	–	–	–	–	–
Calcium combretastatin A-4 3′-O-phosphate [Compound 5a]	0.0011	0.001	* (At 100 μg/disk no inhibition of the eight bacteria and two fungi tested.)	0.22	0.015	0.001	0.010	–	0.001	0.0036	–	–	–	–	–	–	–	–
Cesium combretastatin A-4 3′-O-phosphate [Compound 5b]	0.001	0.0023	* (At 100 μg/disk no inhibition of the eight bacteria and two fungi tested.)	0.31	0.011	0.0032	8.4	>50000	0.0028	0.0043	–	–	–	–	–	–	–	–
Cinchonine combretastatin A-4 3-O-phosphate [Compound 5n]	0.020	0.024	–	1.6	–	0.037	0.089	4000	0.030	–	25–50 μg/disk	–	–	–	–	–	–	–
Glucosamine combretastatin A-4 3′-O-phosphate [Compound 5o]	0.0164	0.015	* (At 100 μg/disk no inhibition of the eight bacteria and two fungi tested.)	4.5	0.016	0.034	0.061	15000	0.026	–	–	–	–	–	–	–	–	–
Imidazole combretastatin A-4 3-O-phosphate [Compound 5g]	0.0025	0.01	* (At 100 μg/disk no inhibition of the eight bacteria and two fungi tested.)	0.39	0.01	0.004	0.011	–	0.001	0.01	–	–	–	–	–	–	–	–
Lithium combretastatin A-4 3-O-phosphate [Compound 5c]	0.0012	0.003	* (At 100 μg/disk no inhibition of the eight bacteria and two fungi tested.)	0.31	0.016	0.004	0.030	–	0.0025	–	–	–	–	–	–	–	–	–
Morpholine combretastatin A-4 3′-O-phosphate [Compound 5h]	0.0023	0.0016	* (At 100 μg/disk no inhibition of the eight bacteria and two fungi tested.)	0.26	0.039	0.003	0.02	–	0.0024	0.0042	–	–	–	–	–	–	–	–
Piperazine combretastatin A-4 3′-O-phosphate [Compound 5i]	0.0016	0.0018	–	0.19	0.021	0.0028	23.5	–	0.0011	0.0036	25–50 μg/disk	25–50 μg/disk	inhibitory to opportunistic fungi	50–100 μg/disk	–	–	–	–
Piperidine combretastatin A-4 3′-O-phosphate [Compound 5j]	0.0029	0.01	* (At 100 μg/disk no inhibition of the eight bacteria and two fungi tested.)	0.30	0.017	0.01	0.50	5000	0.01	0.01	–	–	–	–	–	–	–	–
Pyrazole combretastatin A-4 3-O-phosphate [Compound 5k]	0.0023	0.01	* (At 100 μg/disk no inhibition of the eight bacteria and two fungi tested.)	0.23	0.014	0.01	4.6	–	0.01	0.01	–	–	–	–	–	–	–	–
Pyridine combretastatin A-4 3′-O-phosphate [Compound 5l]	<0.001	0.032	* (At 100 μg/disk no inhibition of the eight bacteria and two fungi tested.)	11.6	0.03	0.038	0.01	3000	0.036	0.35	–	–	–	–	–	–	–	–
Quinidine combretastatin A-4 3-O-phosphate [Compound 5q]	0.0032	0.0033	–	0.43	–	0.0039	0.11	–	0.0036	–	6.25–12.5 μg/disk	–	–	–	–	–	–	–
Quinine combretastatin A-4 3′-O-phosphate [Compound 5p]	0.027	0.006	* (At 100 μg/disk no inhibition of the eight bacteria and two fungi tested.)	2.2	–	0.0042	7.5	–	0.0048	–	–	–	–	–	–	–	–	–
Sodium (E)-combretastatin A-4 3′-O-phosphate [Compound 4c]	0.02	0.071	–	4.0	3.1	0.038	11.2	4000	0.044	0.036	50–100 μg/disk	–	–	–	sparingly soluble in water	–	–	–
Sodium (Z)-combretastatin A-4 3′-O-phosphate [Compound 3d]	0.00292	0.0045	–	0.23	0.0025	0.0035	0.0061	20000	0.0072	–	50–100 μg/disk	–	–	–	–	inhibited growth	0.91	6.89
Zinc combretastatin A-4 3′-O-phosphate [Compound 5f]	0.0343	0.0070	* (At 100 μg/disk no inhibition of the eight bacteria and two fungi tested.)	1.1	0.024	0.0074	0.059	11000	0.0062	1.0	–	–	–	–	–	–	–	–

From patent publication US7018987B1 (priority 1998, dated 2006)
